Test results reported in article PMC10989073, “Antineoplastic effect of compounds C14 and P8 on TNBC and radioresistant TNBC cells by stabilizing the K-Ras4B^G13D/PDE6δ complex” (Frontiers in Oncology, 2024).

Tests used:
MDA-MB-231 cells = assay: Cell cycle analysis (propidium iodide, flow cytometry); format: cell-based, human; details: MDA-MB-231, 3 h at IC50-48H; control 10.0%
Method: (§1) After 3-h incubation, cells were harvested, washed twice in ice-cold PBS, and fixed overnight in 70% ethanol at 4°C. Then, cells were washed in PBS, collected by centrifugation, and stained with staining buffer (PBS with 50 µg/ml propidium iodide and 100 µg/ml RNase A).

MDA-MB-231RR cells = assay: as above; format: cell-based, human; details: 3 h at IC50-48H, control 35.6%
Method: as §1

[1] = system: AKT and ERK phosphorylation in MDA-MB-231RR cells; assay: Western blotting of pAKT and pERK; format: cell-based, human; details: IC50-48 for 3 h, EGF 100 ng/ml 10 min, densitometry
Method: (§2) To determine the effect of the C14 and P8 compounds over the protein effectors of K-Ras4B, AKT, and ERK, immunoblotting assays were conducted with specific antibodies. In brief, MCF-10A, MDA-MB-231, and MDA-MB-231RR cells were plated in 100-mm culture dishes until 80% of confluents. Cell adhesion was allowed for 24 h. […] After pre-treatment, cells were stimulated with 100 ng/ml EGF for 10 minutes to promote AKT and ERK activation. Later, the whole-cell extracts were obtained by the lysis of the cells (Cytoskeleton) in the presence of proteases and phosphatase inhibitors. Subsequently, the protein extracts were incubated at 4°C for 40 minutes to be clarified by centrifugation for 10 minutes at 14,000 rpm, at 4°C. The protein concentration of each extract was determined by using the Precision Red Advanced Protein Assay Reagent (Cytoskeleton) Then, approximately 25 μg of protein extract was electrophoresed in 10% sodium dodecyl sulfate–polyacrylamide gel electrophoresis (SDS-PAGE) and transferred to polyvinylidene fluoride (PVDF) membranes (Millipore, Billerica, MA, USA). Blots were probed using the following primary antibodies: Total ERK (Cell Signaling, Danvers, MA, USA), pERK (Cell Signaling), Total AKT (Cell Signaling), pAKT (Cell Signaling), GSK3β (Cell Signaling), and cyclin D1 (Abcam) at a 1:1,000 dilution. As a control, an anti-GAPDH antibody (GeneTex, Irvine, CA, USA) was employed at a 1:100,000 dilution and γ-Tubulin (Invitrogen) 1:5,000. Densitometric analysis of blots was performed using the software ImageJ version 1.45 (National Institutes of Health, Bethesda, […], USA).

[2] = system: AKT and ERK phosphorylation in MCF-10A cells; assay: Western blotting of pAKT and pERK; format: cell-based, human; details: IC50-48 for 3 h, EGF 100 ng/ml 10 min, densitometry
Method: as §2

[3] = system: Ras-GTP in MDA-MB-231RR cells; assay: Ras activation pull-down assay (Raf-RBD); format: cell-based, human; details: 3 h pre-treatment at IC50-48H, EGF 100 ng/ml 10 min
Method: (§3) Subsequently, the cells were stimulated with epidermal growth factor (EGF) (100 ng/ml) for 10 minutes. Lysates (1 mg/ml) were exposed to Ras GTP-binding protein (Raf-RBD), following the manufacturer’s instructions. Experiments for each cell type and condition were repeated three times.

[4] = system: Ras-GTP in MDA-MB-231 cells; assay: Ras activation pull-down assay (Raf-RBD); format: cell-based, human; details: MDA-MB-231, 3 h pre-treatment at IC50-48H, EGF 100 ng/ml 10 min
Method: as §3

MCF-10A cells [5] = assay: Apoptosis/necrosis assay (Annexin V–propidium iodide, flow cytometry); format: cell-based, human
Method: Apoptosis and necrosis were determined using the Apoptosis/Necrosis Detection kit (Abcam, Cambridge, UK) according to the manufacturer’s instructions. In brief, approximately 500,000 cells were seeded in 6-well plates (Corning) for 24 h. […] Cells were harvested and collected by centrifugation. All the samples were analyzed in triplicate using flow cytometry equipment FACSCalibur instrument (BD Biosciences, San Jose, CA, USA) at […] and 575-nm emission. Data analysis was performed using the FlowJo software (Tree Star Inc., Ashland, OR, USA). All experiments were performed in triplicate.

[6] = system: cyclin D1 and GSK3β in MCF-10A cells; assay: Western blotting of cyclin D1 and GSK3β; format: cell-based, human; details: 3 h, densitometry; for reduction in cyclin D1 protein: C14 and P8 at IC50-24 (Figure 7 legend); for reduction in GSK3β: IC50-24 (Figure 7 legend)
[7] = system: MDA-MB-231RR xenograft tumors; assay: Orthotopic breast carcinoma xenograft, tumor growth; format: in vivo, Nu/Nu nude mice; details: female Nu/Nu mice, i.p. daily for 15 days, 30 mg/kg (methods: P8 10 mg/kg)
Method: Female immune-deficient Nu/Nu nude mice at 6–8 weeks of age ([…], Mexico City, Mexico) were maintained in pathogen-free conditions with irradiated chow. The animals were subcutaneously injected in the left 4th mammary gland with 2 × 10^6 MDA-MB-231RR cells per tumor in 0.1 ml of sterile phosphate-buffered saline. When MDA-MB-231RR cells reached palpable tumors (≥100 mm^3), mice were divided randomly into four groups receiving vehicle (10% DMSO, 0.05% carboxy methyl cellulose, and 0.02% in PBS) (n = 5), C14 at 30 mg/kg (n = 5), P8 at 10 mg/kg (n = 5), or cisplatin at 6 mg/kg (n = 5) intraperitoneally injected daily for 15 days. Body weight and tumor volume were measured every third day. Tumor sizes were calculated using the formula [(length × width2)/2] in mm.

MCF-10A cells [8] = assay: Clonogenic assay; format: cell-based, human; details: 10 to 12 days, C14 and P8 at IC50-48, cisplatin 100 µM, doxorubicin 0.5 µM
Method: The principal aim of a clonogenic assay is to evaluate the effect of chemotherapy agents or new drugs by the measurement of their ability to arrest tumor cell division and their ability to develop new colonies after their exposure to these new drugs ([56]). Therefore, the colony formation ability of the cell lines MCF-10A, MDA-MB-231, and MDA-MB-231RR was evaluated after their exposure to the C14 and P8 compounds. In brief, breast cancer cell lines were cultured in 6-well plates (Corning), seeding 300 cells per well, and incubated at 37°C in 5% CO2 for 24 h. Compounds C14 and P8 were added at the maximum evaluated concentration IC50-48. As controls, cells without treatment and cells treated in the presence of a vehicle (DMSO at 0.66%) were employed (Sigma-Aldrich). […] After 10 days of treatment, cells were fixed with 4% PFA and stained with 0.1% crystal violet in citric acid (Sigma-Aldrich) for 15 minutes. Subsequently, the dye present in the cells was extracted using isopropanol and read at 570 nm in a Synergy-HTX microplate reader (BioTek). Each test was performed in triplicate. Data were expressed as % colonies relative to the untreated control ([56]).

| SMILES | percentage of cells in G2/M (MDA-MB-231 cells) | percentage of cells in S phase (MDA-MB-231RR cells) | reduction in pAKT [1] | reduction in pERK [1] | reduction in pAKT [2] | reduction in pERK [2] | decrease in Ras-GTP levels [3] | reduction in Ras-GTP levels [4] | viability (MCF-10A cells [5]; 24 h at IC50-24, flow cytometry) | reduction in cyclin D1 protein [6] | reduction in GSK3β [6] | reduction in tumor size [7] | reduction of colony growth (MCF-10A cells [8]) | apoptosis cells (MCF-10A cells [5]; 24 h, cisplatin 100 µM, doxorubicin 0.5 µM) |
| --- | --- | --- | --- | --- | --- | --- | --- | --- | --- | --- | --- | --- | --- | --- |
| CN(CC(=O)NC1CCOc2ccccc21)Cc1cccc(Cl)c1 (centres unmarked) [C14, 2-[(3-chlorophenyl)-methyl-methyl-amino]-N-croman-4-yl-acetamide] | 6.4% | 20.7% | > 70% | approximately 30% | 25% | 40% | approximately 20% | 20% | 91.1% | 40% | 10% | 40.0% | – | – |
| N.N.[Cl][Pt][Cl] [Cisplatin, cisplatin, reference compound] | – | – | – | – | – | – | – | – | – | – | – | – | 95% | over 70% |
| O=C(CN1CCN(c2cccc(Cl)c2)CC1)N[C@@H]1CCOc2ccccc21 [P8, 2-[4-(3-chlorophenyl)piperazin-1-yl]-N-[(4R)-chroman-4-yl]acetamide] | 8.2% | 26.4% | > 70% | 35% | 25% | 40% | over 60% | over 80% | – | 40% | 40% | 41.6% | 48% | – |
